These results are taken from patent US20090081194A1, “COMPOSITIONS AND METHODS FOR REDUCING RISK OF DEVELOPMENT, OR SEVERITY, OF INAPPROPRIATE IMMUNE RESPONSE IN EYES” (priority 2007, published 2009).

The test system of series [1] is mouse peritoneal neutrophils. Nature of the series: Cytokine production (ELISA) by activated mouse peritoneal neutrophils. It counts as cell-based. To be noted: 15 hours. How it is done: In one experiment, mouse peritoneal neutrophils were isolated from C57BL/6 mice that had received intraperitoneal injection of 1% casein solution containing 0.5 mM MgCl2 and 0.99 mM CaCl2 16 hours and 3 hours prior to harvesting in Hank's balanced salt solution (“HBSS”) lavage. Collected cells were centrifuged (2000 rpm, 10 min) and washed twice in HBSS, prior to separation of granulocytes by Percol gradient at 31,500 rpm for 20 min. Cells were washed twice and resuspended in Dubelco's modified eagle's medium (“DMEM”) containing 10% fetal calf serum (Invitrogen, Basel Switzerland). Purity of 98% neutrophils was verified by Diff-Quik stain (VWR, Bridgeport, N.J.). Neutrophils (1×10^5/well) were pre-incubated with 100 ng/ml GM-CSF at 37° C. for 1 hour prior to exposure to compositions of the present invention comprising 0.08-10 μg/ml of inhibitory ODN 2088 (InvivoGen, San Diego, Calif.; sequence disclosed above) or a control composition containing 20 μg/ml of the control ODN 1911 (Operon Qiagen, Valencia, Calif.; having a sequence of […]), or the medium only, for 30 minutes prior to activation with 20 μg/ml of stimulatory ODN 1826 (Operon Qiagen, Valencia, Calif.; having a sequence of […]); 20 μg/ml of endotoxin-free DNA from E. coli K12 (InvivoGen, San Diego, Calif.); killed Staphylococcus aureus strain E2061740 (3×10^5 cfu/ml); 100 ng/ml of Pam3Cys (synthetic lipopeptide (S)-(2,3-bis(palmitoyloxy)-(2RS)-propyl)-N-palmitoyl-(R)-Cys-(S)-Ser-(S)-Lys4-OH, EMC Microcollections, Tubingen, Germany); or 200 ng/ml of LPS (ultra pure lipopolysaccharide from E. coli 0111:B4 strain, InvivoGen, San Diego, Calif.). After 15 hours at 37° C., supernates were collected for ELISA assay (R&D Systems, Minneapolis, Minn.) for pro-inflammatory cytokines macrophage inflammatory protein-2 (“MIP-2”), keratinocyte-derived chemokines (“KC”), IL-6, and TNF-α. […] The production of these pro-inflammatory cytokines was not affected when neutrophils activated by Pam3Cys or LPS were treated with a composition comprising the inhibitory ODN 2088. This not surprising in view of the fact that the inhibitory ODN 2088 inhibits the activation of TLR9 while LPS and Pam3Cys activate TLR4 and TLR2, respectively. Other inhibitors of TLR2 and TLR4 activation should be effective in suppressing corneal infiltrate induced by […], respectively.
For orientation: In an ELISA, binding on a coated surface is turned into a signal by an enzyme label.

The subject of series [2] is C57BL/6 mouse cornea. Nature of the series: Corneal epithelium cytokines (ELISA) after stimulatory ODN on abraded mouse cornea. To be noted: stimulatory ODN 1826 20 μg/ml with ODN 2088 20 μg/ml, 5 hours; all three cytokines; FIG. 6. The format is in vivo. How it is done: In this experiment, 1 μl of test solution containing 20 μg/ml of the synthetic stimulatory ODN 1826, along with a composition of the present invention containing 20 μg/ml of the inhibitory ODN 2088, or a control composition containing 20 μg/ml of the control ODN 1911, or the medium only, was applied to a 1 mm^2 abraded area of central C57BL/6 mouse cornea that had been marked by sterile trephine (Miltex, Tuttlingen, Germany) and abraded with an Alger brush II (Alger, PagoVista, TX). After 5 hours, the corneal epithelium was separated after 20 minutes in 20 mM EDTA at 37° C. and placed into RPMI 1640 medium. Samples were disrupted by sonication for 88 seconds with 40% duty cycle (Vibracell; Sonics and Material, Danbury, Conn.). Cytokines were measured by ELISA assay (R&D Systems, Minneapolis, Minn.) for the pro-inflammatory cytokines MIP-2, KC, and human interferon-inducible protein 10 (“IP-10”).

Another series has as its target T1, TLR9 (Homo sapiens, UniProt Q9NR96).
T1 sequence (Q9NR96 26-1032): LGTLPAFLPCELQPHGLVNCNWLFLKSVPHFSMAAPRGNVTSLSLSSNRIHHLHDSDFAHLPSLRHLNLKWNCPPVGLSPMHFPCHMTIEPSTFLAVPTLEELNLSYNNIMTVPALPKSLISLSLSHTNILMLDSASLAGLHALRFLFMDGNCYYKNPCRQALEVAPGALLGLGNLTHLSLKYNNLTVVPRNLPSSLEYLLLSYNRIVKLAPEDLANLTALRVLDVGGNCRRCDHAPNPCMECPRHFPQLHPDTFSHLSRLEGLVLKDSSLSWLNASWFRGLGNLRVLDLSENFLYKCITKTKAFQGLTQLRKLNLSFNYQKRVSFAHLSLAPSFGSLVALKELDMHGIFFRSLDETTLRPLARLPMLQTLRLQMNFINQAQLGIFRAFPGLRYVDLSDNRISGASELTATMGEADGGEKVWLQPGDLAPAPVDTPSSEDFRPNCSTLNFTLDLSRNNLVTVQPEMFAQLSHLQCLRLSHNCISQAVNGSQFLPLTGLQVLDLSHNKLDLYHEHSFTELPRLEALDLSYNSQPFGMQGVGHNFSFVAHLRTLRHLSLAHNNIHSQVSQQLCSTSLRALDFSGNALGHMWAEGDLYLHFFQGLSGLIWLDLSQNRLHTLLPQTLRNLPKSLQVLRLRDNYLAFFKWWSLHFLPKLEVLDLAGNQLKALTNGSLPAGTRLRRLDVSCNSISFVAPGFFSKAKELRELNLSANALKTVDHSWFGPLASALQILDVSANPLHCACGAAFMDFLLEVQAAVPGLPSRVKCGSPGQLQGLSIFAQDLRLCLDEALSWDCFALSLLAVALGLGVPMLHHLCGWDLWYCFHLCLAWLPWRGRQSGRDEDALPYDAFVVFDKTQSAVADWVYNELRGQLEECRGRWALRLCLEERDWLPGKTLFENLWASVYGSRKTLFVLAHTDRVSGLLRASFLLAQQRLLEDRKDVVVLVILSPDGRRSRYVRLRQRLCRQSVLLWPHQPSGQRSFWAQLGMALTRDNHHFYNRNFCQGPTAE
Conditions: Gursel et al. 2003; Stunz et al. 2002; cited from earlier work.

Series [3] relates to C57BL/6 mouse cornea. Nature of the series: Mouse keratitis: neutrophil infiltrate in abraded cornea. The format is in vivo. Conditions: topical on abraded cornea, 24 hours, FIG. 5. How it is done:
In this experiment, 1 μl of test solution containing 20 μg/ml of the synthetic stimulatory ODN 1826, 10 μg/ml of endotoxin-free DNA from E. coli K12, 20 μg/ml of Pam3Cys, or 20 μg/ml LPS, along with a composition of the present invention containing the inhibitory ODN 2088, the control composition containing 20 μg/ml of ODN 1911, or medium only, was applied to a 1 mm^2 abraded area of central C57BL/6 mouse cornea that had been marked by sterile trephine (Miltex, Tuttlingen, Germany) and abraded with an Alger brush II (Alger, PagoVista, Texas). After 24 hours, the corneal infiltrate was determined as the number of neutrophils per corneal section. […] Other inhibitors of TLR2 and TLR4 activation should be effective in suppressing corneal infiltrate induced by Pam3Cys and LPS, respectively.

Regarding “TCCTGGCGGGGAAGT (chemistry not given here) [ODN 2088]”, the “pro-inflammatory cytokine production by neutrophils (MIP-2, KC, IL-6, TNF-α)” value in series [1] (activation with 100 ng/ml Pam3Cys) was “not affected”; in series [1] (activation with 200 ng/ml LPS), “not affected”; in series [1] (activation with 20 μg/ml endotoxin-free DNA from E. coli K12, ODN 2088 0.08-10 μg/ml, dose dependent, FIGS. 1-4) it was “inhibited pro-inflammatory cytokine production”; in series [1] (activation with 20 μg/ml stimulatory ODN 1826, ODN 2088 0.08-10 μg/ml, dose dependent, FIGS. 1-4), “inhibited pro-inflammatory cytokine production”; in series [1] (activation with killed Staphylococcus aureus (3×10^5 cfu/ml)) it was “nondetectable levels”. The “corneal cytokine response (MIP-2, KC, IP-10)” value in the series with C57BL/6 mouse cornea [2] is “reduced cytokine response”. Further, in the series with TLR9, the “colocalization of CpG DNA with TLR9 within endosomal vesicles” value is “block the colocalization”. Further, the “corneal infiltrate, number of neutrophils per corneal section” value with C57BL/6 mouse cornea [3] (LPS 20 μg/ml) is “not effective in suppressing corneal infiltrates”; with C57BL/6 mouse cornea [3] (Pam3Cys 20 μg/ml), “not effective in suppressing corneal infiltrates”; in the series on C57BL/6 mouse cornea [3] (bacterial DNA (E. coli K12) 10 μg/ml) it was “reduced the number of infiltrating neutrophils”; in the series on C57BL/6 mouse cornea [3] (stimulatory ODN 1826 20 μg/ml) it was “reduced the number of infiltrating neutrophils”.
